Data set [1] addresses human A2A receptor (A2AR) (Homo sapiens (Human), UniProt P29274). Put plainly: Luciferase reporter assay (HEK293-A2AR-luc2p/CRE/Hygro cells). In kind it is cell-based. The note with it: 3 nM CGS21680, 5 h incubation. An outline of the steps: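 HEK293 cells stably expressing human A2AR and a CRE-luc2P reporter were seeded in 1% FBS with 1 U/mL adenosine deaminase. After 18 h they were stimulated 5 h with 3 nM CGS21680 plus compound (0.1–10000 nM), then luciferase luminescence was read. IC50 was taken from inhibition curves, with CGS21680 alone set as 100%.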
(Reporter assays use an easily measured gene product as a stand-in for the process of interest.)

Data set [2] addresses human adenosine A1 receptor (A1R) (Homo sapiens (Human), UniProt P30542). Put plainly: Adenosine receptor binding assay, A1 (radioligand competitive binding). The note with it: membrane homogenates from CHO cells transfected with A1R, 1 nM [3H]DPCPX. On the procedure:
(§1) Binding affinity of test compounds to four human adenosine receptors, A1, A2A, A2B and A3 was determined in radioligand competitive binding assay (conducted by Cerep, France) using following protocols. For A1 receptor (A1R), membrane homogenates from CHO cells transfected with A1R were incubated for 60 min at 22° C. with 1 nM [3H]DPCPX in the absence or presence of the test compound in a buffer containing 50 mM Tris-HCl (pH 7.4), 5 mM MgCl2, 1 mM EDTA/Tris and 2 UI/mL ADA. For A2AR, membrane homogenates from HEK293 cells transfected with A2AR were incubated for 120 min at 22° C. with 6 nM [3H]CGS21680 in the absence or presence of the test compound in a buffer containing 50 mM Tris-HCl (pH 7.4), 10 mM MgCl2, and 2 UI/mL ADA. For A2B receptor (A2BR), membrane homogenates from HEK293 cells transfected with A2BR were incubated for 60 min at 22° C. with 5 nM [3H]CPX in the absence or presence of the test compound in a buffer containing 10 mM Hepes/Tris (pH 7), 1 mM MgCl2, and 1 mM EDTA. For A3 receptor (A3R), membrane homogenates from HEK293 cells transfected with A3R were incubated for 120 min at 22° C. with 0.15 nM [125I] AB-MECA in the absence or presence of the test compound in a buffer containing 50 mM Tris-HCl (pH 7.4), 5 mM MgCl2, 1 mM EDTA and 2 UI/mL ADA. Nonspecific binding was determined in the presence of unlabeled 1 μM DPCPX, 10 μM NECA, 100 μM NECA, and 1 μM IB-MECA in A1R, A2AR, A2BR, A3R binding assays, respectively. Following incubation, the samples are rapidly filtered and washed with ice-cold 50 mM Tris-HCl. Then filters are dried and counted for radioactivity in a scintillation counter (Topcount, Packard) using a scintillation cocktail (Microscint 0, Packard). Duplicate experiments were performed for each assay. The results are expressed as a percent inhibition of control radioligand specific binding.

Data set [3] concerns the target human adenosine A2A receptor (A2AR) (Homo sapiens (Human), UniProt P29274). Put plainly: Adenosine receptor binding assay, A2A (radioligand competitive binding). The note with it: membrane homogenates from HEK293 cells transfected with A2AR, 6 nM [3H]CGS21680. As for the experimental part:
as §1

A further data set can be described thus: Mouse BBB assay. It is filed as in vivo. The conditions noted are these: oral 10 mg/kg; for Brain (ng · g^−1): at 1 h. As for the experimental part: Mice were acclimated for 1 week prior to use at 18-30 g body weight. Fasted mice were dosed orally at 10 mg/kg dose. At 1, 2 and 4 hours postdose, plasma samples from cardiac blood collected in tubes containing K2EDTA as the anticoagulant, and excised cerebral hemispheres were immediately frozen and stored at −80° C. until bioanalysis. Total concentrations of the compound were determined by LC-MS/MS. Brain homogenate concentrations were converted to brain concentrations for the calculations of brain-to-plasma ratios.

Setting [4] is: BLOQ: below limit of quantitation, Brain is 5 ng/g.
The mark [5] stands for this setting: limit of quantitation plasma 1 ng/ml, read-out: Plasma.

Broadly, the IC50 is the concentration that inhibits the measured activity by half. Read a high IC50 as lower potency. The Ki is the dissociation constant of the complex between target and ligand, obtained from inhibition or displacement. The low end stands for tighter binding, the high end for weaker binding.

Where two headings read alike, the source gives them in different places.

Sequence of human A2A receptor (A2AR) (P29274 whole entry): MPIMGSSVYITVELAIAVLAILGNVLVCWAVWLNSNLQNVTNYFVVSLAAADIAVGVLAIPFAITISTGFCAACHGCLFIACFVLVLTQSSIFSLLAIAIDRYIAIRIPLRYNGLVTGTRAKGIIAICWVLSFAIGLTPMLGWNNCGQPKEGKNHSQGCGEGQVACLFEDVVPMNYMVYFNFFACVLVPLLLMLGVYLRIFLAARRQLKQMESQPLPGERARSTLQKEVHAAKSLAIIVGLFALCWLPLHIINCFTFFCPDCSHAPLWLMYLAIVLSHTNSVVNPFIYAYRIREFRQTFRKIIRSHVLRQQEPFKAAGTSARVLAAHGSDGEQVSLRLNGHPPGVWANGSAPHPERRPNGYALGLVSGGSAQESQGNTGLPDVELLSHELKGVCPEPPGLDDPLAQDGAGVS
Sequence of human adenosine A2A receptor (A2AR) (P29274 whole entry): as above
Sequence of human adenosine A1 receptor (A1R) (P30542 whole entry): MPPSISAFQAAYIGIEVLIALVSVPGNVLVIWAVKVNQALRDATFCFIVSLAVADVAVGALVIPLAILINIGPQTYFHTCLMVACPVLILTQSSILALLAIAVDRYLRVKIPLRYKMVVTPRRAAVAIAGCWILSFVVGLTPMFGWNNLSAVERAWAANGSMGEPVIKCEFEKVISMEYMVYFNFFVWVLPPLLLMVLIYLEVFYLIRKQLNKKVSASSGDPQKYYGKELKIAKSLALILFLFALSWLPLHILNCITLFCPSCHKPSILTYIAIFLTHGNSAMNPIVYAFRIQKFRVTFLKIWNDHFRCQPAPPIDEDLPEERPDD

For the compound `C[C@](C(=O)NCC1(O)COC1)(c1ccccc1)n1ncc2c1nc(N)n1nc(-c3ccco3)nc21` [Example 31B, (R)-2-(5-amino-2-(furan-2-yl)-7H-pyrazolo[4,3-e][1,2,4]triazolo[1,5-c]pyrimidin-7-yl)-N-((3-hydroxyoxetan-3-yl)methyl)-2-phenylpropanamide], the IC50 in data set [1] is 2.3 nM. Moreover, the Ki in data set [2] came out at 180 nM; in data set [3], 1.2 nM. The “Brain (ng · g^−1)” value in “Mouse BBB assay” (setting [4]) was “BLOQ”. The concentration at 1 h in the data set “Mouse BBB assay” (setting [5]) was 177 ng/mL.

Compound `Nc1nc2c(cnn2[C@H](C(=O)NCC2(O)COC2)c2ccccc2)c2nc(-c3ccco3)nn12` [Example 82B] returned a half-maximal inhibitory concentration (IC50) in data set [1] of 3.8 nM. Also, the Ki in data set [2] worked out at 7.2 nM; in data set [3] it was 1.7 nM.

The compound `CC1(O)CCC(NC(=O)[C@@](C)(c2ccccc2)n2ncc3c2nc(N)n2nc(-c4ccco4)nc32)CC1` (stereo partly drawn) [Example 69B, (R)-2-(5-amino-2-(furan-2-yl)-7H-pyrazolo[4,3-e][1,2,4]triazolo[1,5-c]pyrimidin-7-yl)-(cis)-N-(4-hydroxy-4-methylcyclohexyl)-2-phenylpropanamide] registered an IC50 in data set [1] of 3.9 nM. The Ki in data set [2] was found to be 540 nM; in data set [3] it was 1.6 nM. In the data set “Mouse BBB assay” (setting [4]), the “Brain (ng · g^−1)” value was “BLOQ”. The concentration at 1 h in “Mouse BBB assay” (setting [5]) turned out to be 29.4 ng/mL.

With `C[C@](C(=O)N[C@@H]1CCC[C@@H]1O)(c1ccccc1)n1ncc2c1nc(N)n1nc(-c3ccco3)nc21` [Example 48B, (R)-2-(5-amino-2-(furan-2-yl)-7H-pyrazolo[4,3-e][1,2,4]triazolo[1,5-c]pyrimidin-7-yl)-N-((1R,2S)-2-hydroxycyclopentyl)-2-phenylpropanamide], in data set [1], the IC50 was 1.6 nM. Besides, the Ki in data set [2] is 12 nM; in data set [3], 2.2 nM. The concentration at 1 h in the data set “Mouse BBB assay” (BLOQ: below limit of quantitation, Brain is 5 ng/g, read-out: Brain) turned out to be 8.69 ng/g; in “Mouse BBB assay” (setting [5]), 56.3 ng/mL.

For `C[C@](C(=O)N[C@H]1CC[C@@H](O)CC1)(c1ccccc1)n1ncc2c1nc(N)n1nc(-c3ccco3)nc21` [Example 76B, (R)-2-(5-amino-2-(furan-2-yl)-7H-pyrazolo[4,3-e][1,2,4]triazolo[1,5-c]pyrimidin-7-yl)-(cis)-N-(4-hydroxycyclohexyl)-2-phenylpropanamide], the IC50 in data set [1] turned out to be 2.2 nM. For the same compound, the Ki was 150 nM in data set [2] and 1.6 nM in data set [3]. Moreover, the “Brain (ng · g^−1)” value in “Mouse BBB assay” (setting [4]) was “BLOQ”. Also, in the data set “Mouse BBB assay” (setting [5]), the concentration at 1 h stood at 39.1 ng/mL.

These data come from patent US11472811B2, “Pyrazolotriazolopyrimidine derivatives as A2A receptor antagonist” (BEIGENE, LTD., priority 2018, dated 2022).
